Measured values published in ChEMBL document CHEMBL6177963, “Development of acylhydrazone linked thiazoles as non-covalent dual inhibitors of SARS-CoV-2 proteases” (Eur J Med Chem, 2025).

Key:
[1] = target: Replicase polyprotein 1ab (Severe acute respiratory syndrome coronavirus 2, UniProt P0DTD1); assay: Inhibition of SARS-CoV-2 PLPro
[2] = Cytotoxicity against human HEK293 cells assessed as cell viability measured after 48 hrs by MTT assay; format: toxicity, cell-based
[3] = Cytotoxicity against African green monkey Vero E6 cells assessed as cell viability at 10 uM measured after 48 hrs by MTT assay relative to control; format: toxicity, cell-based, Vero C1008; details: chlorocebus sabaeus, read-out: Activity

Structure (SMILES)	IC50 [1] [µM]	IC50 at 48 h [2] [µM]	viability at 48 h, 10 µM [3] [%]
O=C(O)c1cc(F)c2nc(N3[C@@H]4CC[C@H]3C[C@@H](OCc3c(-c5ccccc5OC(F)(F)F)noc3C3CC3)C4)sc2c1 [TROPIFEXOR]	5.11	–	–
COc1cccc2c1C(=O)c1c(O)c3c(c(O)c1C2=O)C[C@@](O)(C(=O)CO)C[C@@H]3O[C@H]1C[C@H](N)[C@H](O)[C@H](C)O1 [DOXORUBICIN]	–	8.23	38.2
